Patent US7855292B2, “Sulfonamide compounds” (Janssen Pharmaceutica NV, priority 2004, dated 2010)

Tests used:
CCK-1 receptor = target: T1, CCK-1 receptor (Homo sapiens, UniProt P32238); assay: CCK1 binding assay ([125I]-BH-CCK-8S displacement, CHO-K1 membranes); conditions: membranes of CHO-K1 cells stably transfected with the CCK-1 receptor; 20 pM [125I]-BH-CCK-8S; 0.3 μM PD-134,308 present; 60 min at 21±3° C.; read-out: CCK1 pKi (converted)
T1 construct: expressed in transfected cells; host or cells: CHO-K1
T1 sequence (P32238 1-428): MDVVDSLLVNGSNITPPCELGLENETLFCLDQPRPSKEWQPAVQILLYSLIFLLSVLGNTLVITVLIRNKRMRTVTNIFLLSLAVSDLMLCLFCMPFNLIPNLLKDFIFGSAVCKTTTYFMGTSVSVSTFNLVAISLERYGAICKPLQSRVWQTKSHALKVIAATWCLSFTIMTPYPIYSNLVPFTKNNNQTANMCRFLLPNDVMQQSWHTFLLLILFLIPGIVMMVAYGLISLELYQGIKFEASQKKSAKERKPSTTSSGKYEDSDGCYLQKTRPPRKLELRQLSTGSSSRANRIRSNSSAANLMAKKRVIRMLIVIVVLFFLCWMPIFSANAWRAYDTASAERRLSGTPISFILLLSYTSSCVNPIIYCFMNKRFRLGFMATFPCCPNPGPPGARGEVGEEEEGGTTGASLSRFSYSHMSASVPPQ
Protocol: 1. CCK1 Assay Development and Data Generation
CHO-K1 cells that had undergone stable transfection with the CCK-1 receptor were grown in DMEM supplemented with L-glutamine (2 mM), penicillin (50 units/mL) and streptomycin (50 μg/mL). Cells were cultured under continuous G418 selection (2 mM) and were harvested using a rubber cell scraper. CHO-K1 cells were sub-cultured a maximum of ten times before being reseeded from the original stocks.
Membranes were prepared from the stably transfected CHO-K1 cells. Frozen cell pellets (−40° C.) were thawed in 14 mL of buffer A (10 mM HEPES, 130 mM NaCl, 4.7 mM KCl, 5 mM MgCl, 1 mM EGTA and 15.4 mg/100 mL bacitracin at pH 7.2), adapted from Harper et al. (Br. J. Pharmacol. 1996, 118:1717-1726). The thawed pellets were homogenized using a Polytron PT-10 (7×1 s). The homogenates were centrifuged for 5 min at 1500 rpm (600×g), and the resulting pellets were discarded. The supernatants were re-centrifuged in order to collect the receptor-membrane pellets (25 min 15,000 rpm; 39,800×g), which were re-suspended in buffer A.
All assays were conducted in 96-well plates (GF/B millipore filter plates) using buffer A, with 0.3 μM PD-134,308, for the dilutions. The CCK-2 receptor ligand was included to eliminate the contribution of this receptor subtype to the binding. For the optimal cell number determination experiments 20 pM [^125I]-BH-CCK-8S (50 μL […] solution) was incubated with a range of cell concentrations ([…] to 12.5×10^5 cells/well) in a total volume of 150 μL. Total binding of [^125I]-BH-CCK-8S was determined in the presence of 15 μL of buffer A. Non-specific binding of [^125I]-BH-CCK-8S was determined in the presence of 15 μL of 100 μM 2-naphthalenesulphonyl L-aspartyl-(2-phenethyl)amide (2-NAP: see R. A. Hull et al. Br. J. Pharmacol. 1993, 108:734-740), a CCK-1 receptor selective antagonist that is structurally unrelated to the radioligand [^125I]-BH-CCK-8S. The assay preparation was incubated for 1 h at 21±3° C., and then the assay was terminated upon rapid filtration of the preparation under reduced pressure. The loaded filters were washed three times using undiluted PBS ([…]), and then the residues were transferred to 5 mL scintillation tubes. Bound radioactivity was determined using a gamma counter (count time=1 min). […] To validate the radioligand concentration and incubation time for the assay, saturation and kinetic binding studies were also conducted (see M. F. Morton, The Pharmacological Characterization of Cholecystokinin Receptors in the Human Gastrointestinal Tract. PhD Thesis, University of London, 2000). […] The assay was then terminated according to the procedure outlined above.
(§1) 3. Data Analysis for CCK1 and CCK2 Binding Assays
The pKi values were determined using the equation of Y.-C. Cheng and W. H. Prusoff (Biochem. Pharmacol., 1973, 22(23):3099-3108):
(§2) [formula] To circumvent problems associated with computer-assisted data analysis of compounds with low affinity, the data obtained in the current study were weighted according to a method described by Morton. In brief, 100% and 0% specific binding were defined independently using total binding and binding obtained in the presence of a high concentration of the reference antagonist, 2-NAP.

CCK2 receptor = target: T2, CCK2 receptor (Homo sapiens, UniProt P32239); assay: CCK2 binding assay ([125I]-BH-CCK-8S displacement, HEKZFP membranes); conditions: membranes of doxycycline-induced HEKZFP cells; 20 pM [125I]-BH-CCK-8S; 60 min at 21±3° C.; read-out: CCK2 pKi (converted)
T2 construct: analyzed for ZFP expression as well as CCK2R induction upon addition of doxycycline to the culture medium; endogenous in cells
T2 sequence (P32239 1-447): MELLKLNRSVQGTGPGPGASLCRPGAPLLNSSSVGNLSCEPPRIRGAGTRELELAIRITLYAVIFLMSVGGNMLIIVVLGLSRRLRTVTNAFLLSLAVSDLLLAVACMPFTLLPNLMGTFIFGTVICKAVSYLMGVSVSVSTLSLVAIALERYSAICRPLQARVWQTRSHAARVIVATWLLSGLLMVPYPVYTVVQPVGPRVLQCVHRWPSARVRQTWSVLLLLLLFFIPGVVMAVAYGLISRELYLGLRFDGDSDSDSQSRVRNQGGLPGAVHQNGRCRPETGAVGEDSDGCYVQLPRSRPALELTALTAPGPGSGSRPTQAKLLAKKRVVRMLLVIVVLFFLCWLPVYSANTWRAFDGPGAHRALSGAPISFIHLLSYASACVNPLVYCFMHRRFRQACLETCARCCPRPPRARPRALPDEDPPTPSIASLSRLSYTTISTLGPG
Protocol: 2. CCK2 Assay Development and Data Generation
Zinc Finger Proteins (ZFP) specific for the CCK2R gene were identified by Sangamo Biosciences. The ZFP domain was fused with the herpes simplex virus VP16 activation domain, and the fusion protein was subsequently cloned into the pcDNA3 mammalian expression vector (Invitrogen, San Diego, Calif.). […] After 2 weeks of selection in culture medium containing […] Zeocin (Invitrogen), sixty drug-resistant stable clones were isolated and analyzed for ZFP expression as well as CCK2R induction upon addition of doxycycline to the culture medium.
HEKZFP cells were grown in DMEM supplemented with L-glutamine (2 mM), penicillin (50 units/mL) and streptomycin (50 μg/mL) and 10% FBS (v/v).
Membranes were prepared from the HEKZFP cells after induction. […] The thawed pellets were homogenized using a Polytron PT-10 (7×1 s). The homogenates were centrifuged for 5 min at 1500 rpm (600×g), and the resulting pellets were discarded. The supernatants were re-centrifuged in order to collect the receptor-membrane pellets (25 min 15,000 rpm; 39,800×g), which were re-suspended in buffer A.
The assay preparation was incubated for 1 h at 21±3° C., and then the assay was terminated by rapid filtration of the preparation under reduced pressure. The loaded filters were washed three times using undiluted PBS (100 μL), and then 100 μL of scintillation fluid was added to the filter plate. Bound radioactivity was determined using a Topcount (Packard BioScience, Meriden, Conn.) with a count time of 1 min. […] To validate the radioligand concentration and incubation time for the assay, saturation and kinetic binding studies were also conducted (see M. F. Morton, The Pharmacological Characterization of Cholecystokinin Receptors in the Human Gastrointestinal Tract. PhD Thesis, University of London, 2000). […] The assay was then terminated according to the procedure outlined above.
as §1
The pKi values were determined using the equation of Y.-C.
as §2

Ki (CCK-1 receptor) [nM]	Ki (CCK2 receptor) [nM]	SMILES
79.4	794	CC(CNC(=O)c1ccc(Cl)cc1NS(=O)(=O)c1cccc2nccnc12)c1ccc(Cl)c(Cl)c1 (racemic) [Example 59, (±)-4-Chloro-N-[2-(3,4-dichloro-phenyl)-propyl]-2-(quinoxaline-5-sulfonylamino)-benzamide]
126	398	CC(CNC(=O)c1ccc(I)cc1NS(=O)(=O)c1cccc2nccnc12)c1ccc(Cl)c(Cl)c1 (racemic) [Example 61, (±)-N-[2-(3,4-Dichloro-phenyl)-propyl]-4-iodo-2-(quinoxaline-5-sulfonylamino)-benzamide]
126	501	O=C(N[C@@H](C(=O)O)[C@@H](O)c1ccc(Cl)c(Cl)c1)c1ccc(Cl)cc1NS(=O)(=O)c1cccc2nsnc12 (relative stereo) [Example 121, anti-2-[2-(Benzo[1,2,5]thiadiazole-4-sulfonylamino)-4-chloro-benzoylamino]-3-(3,4-dichloro-phenyl)-3-hydroxy-propionic acid]
63.1	1260	Cc1ccc(CC(NC(=O)c2ccc(I)cc2NS(=O)(=O)c2cccc3nccnc23)C(=O)O)cc1 (stereo in doubt) [Example 79, (S)-2-[4-Iodo-2-(quinoxaline-5-sulfonylamino)-benzoylamino]-3-p-tolyl-propionic acid]
1000	39.8	O=C(N[C@@H](Cc1ccccc1)C(=O)O)c1cc(Cl)c(Cl)cc1NS(=O)(=O)c1cccc2nsnc12 [Example 3, 2-[2-(Benzo[1,2,5]thiadiazole-4-sulfonylamino)-4,5-dichloro-benzoylamino]-3-phenyl-propionic acid]
631	5.01	O=C(N[C@@H](Cc1cccc(Br)c1)C(=O)O)c1ccc(I)cc1NS(=O)(=O)c1cccc2nsnc12 [Example 4, (S)-2-[2-(Benzo[1,2,5]thiadiazole-4-sulfonylamino)-4-iodo-benzoylamino]-3-(3-bromo-phenyl)-propionic acid]
15.8	316	CC(CNC(=O)c1ccc(Br)cc1NS(=O)(=O)c1cccc2nsnc12)c1ccc(Cl)c(Cl)c1 (stereo not drawn) [Example 5, 2-(Benzo[1,2,5]thiadiazole-4-sulfonylamino)-4-bromo-N-[2-(3,4-dichloro-phenyl)-propyl]-benzamide]
3160	501	COC(=O)[C@H](Cc1ccc(Br)s1)NC(=O)c1ccc(Cl)cc1NS(=O)(=O)c1cccc2nccnc12 [Example 8, (S)-3-(5-Bromo-thiophen-2-yl)-2-[4-chloro-2-(quinoxaline-5-sulfonylamino)-benzoylamino]-propionic acid methyl ester]
158	398	O=C(N[C@@H](Cc1ccc2ccccc2c1)C(=O)O)c1ccc(Cl)cc1NS(=O)(=O)c1cccc2nccnc12 [Example 9, (S)-2-[4-Chloro-2-(quinoxaline-5-sulfonylamino)-benzoylamino]-3-naphthalen-2-yl-propionic acid]
398	316	NC(=O)[C@H](Cc1ccc(Cl)cc1)NC(=O)c1cc(Cl)c(Cl)cc1NS(=O)(=O)c1cccc2nsnc12 [Example 11, (S)-2-(Benzo[1,2,5]thiadiazole-4-sulfonylamino)-N-[1-carbamoyl-2-(4-chloro-phenyl)-ethyl]-4,5-dichloro-benzamide]
1260	631	C[C@H](CN1C(=O)c2cc(Br)cc(NS(=O)(=O)c3cccc4nsnc34)c2C1=O)c1ccccc1 [Example 13, (S)-Benzo[1,2,5]thiadiazole-4-sulfonic acid [6-bromo-1,3-dioxo-2-(2-phenyl-propyl)-2,3-dihydro-1H-isoindol-4-yl]-amide]
12.6	316	O=C(N[C@H](Cc1ccc(Cl)cc1)C(=O)O)c1cc(Cl)c(Cl)cc1NS(=O)(=O)c1cccc2nsnc12 [Example 14, (R)-2-[2-(Benzo[1,2,5]thiadiazole-4-sulfonylamino)-4,5-dichloro-benzoylamino]-3-(4-chloro-phenyl)-propionic acid]
39.8	200	O=C(N[C@H](Cc1ccc(Cl)cc1)C(=O)O)c1ccc(I)cc1NS(=O)(=O)c1cccc2nccnc12 [Example 15, (R)-3-(4-Chloro-phenyl)-2-[4-iodo-2-(quinoxaline-5-sulfonylamino)-benzoylamino]-propionic acid]
79.4	2510	O=C(N[C@H](Cc1ccccc1)C(=O)O)c1ccc(I)cc1NS(=O)(=O)c1c(F)cccc1F [Example 17, (R)-2-[2-(2,6-Difluoro-benzenesulfonylamino)-4-iodo-benzoylamino]-3-phenyl-propionic acid]
2000	100	CN(CCc1ccccc1)C(=O)c1ccc(Br)cc1NS(=O)(=O)c1cccc2nsnc12 [Example 20, 2-(Benzo[1,2,5]thiadiazole-4-sulfonylamino)-4-bromo-N-methyl-N-phenethyl-benzamide]
